Assay results reported in patent US5036055A, “Acylated derivatives of etoposide” (Bristol-Myers Company, priority 1989, dated 1991).
≈ marks a conversion by molar mass, not a printed value. Where two headings read alike, the source gives them in different places.

What was measured:
B16-F10 murine melanoma = experiment: in vitro cytotoxicity against B16-F10 murine melanoma (neutral red, 540 nm); type: cell-based; conditions: Mus musculus, 72 hours incubation
Procedure: (§1) In vitro cytotoxicity of compounds of the present invention was evaluated against B16-F10 murine melanoma and Moser human colon carcinoma cell lines. Exponentially growing B16-F10 and Moser cells were harvested, counted and suspended in the culture medium at the concentrations of 1.5×10^4 and 3×10^4 cells/ml, respectively. Twenty-four hours after planting cell suspension (180 mcl) into wells of a 96-well microtiter plate, test materials (20 mcl) were added to the wells and the plates were incubated for 72 hours. The cytotoxic activities against the tumor cells were colorimetrically determined at 540 nm after staining viable cells with neutral red solution.

P388 leukemia = experiment: in vivo antitumor activity against murine transplantable P388 leukemia; set-up: species or system murine (female CDF1 mice)
Procedure: Representative compounds of the present invention were evaluated for antitumor activity against murine transplantable P388 leukemia. Female CDF1 mice were inoculated intraperitoneally with 0.4 ml of diluted ascitic fluid containing 10^6 lymphocytic leukemia P388 cells. […] The percent increase of median survival time (MST) of treated animals over that of untreated control animals was determined and reported as % T/C. Compounds showing % T/C values of 125 or greater are considered to have significant antitumor activity. Table I presents the results of the in vivo evaluation; only the maximum % T/C and the dose giving the maximum effects are reported.

[1] = test system: Moser human colon carcinoma; experiment: in vitro cytotoxicity against Moser human colon carcinoma (neutral red, 540 nm); type: cell-based; conditions: 72 hours incubation
Procedure: as §1

[2] = 120 mg/kg/day, i.p. single dose on day 1, CDF1 mice
[3] = Mus musculus, P388, ip, 1200 h, 120 mg/kg/day, i.p. single dose on day 1, maximum % T/C at dose giving maximum effect, CDF1 mice, 50 days, read-out: % T/C MST
[4] = Mus musculus, P388, ip, 1200 h, 30 mg/kg/day, i.p. single dose on day 1, maximum % T/C at dose giving maximum effect, CDF1 mice, 50 days, read-out: % T/C MST
[5] = Mus musculus, P388, ip, 1200 h, read-out: % T/C MST

Structure (SMILES)	IC50 (B16-F10 murine melanoma)	response vs control in vivo at 120 mg/kg (P388 leukemia; [3])	IC50 [1]	response vs control in vivo at 30 mg/kg (P388 leukemia; [4])	other results
COc1cc([C@@H]2c3cc4c(cc3[C@@H](O[C@@H]3O[C@@H]5CO[C@@H](C)O[C@H]5[C@H](OC=O)[C@H]3OC=O)[C@H]3COC(=O)[C@H]23)OCO4)cc(OC)c1O [Example 6, 2",3"-di-0-formyl etoposide]	2 µg/mL (≈ 3.1 µM)	> 500%	0.84 µg/mL (≈ 1.3 µM)	–	Number of survivors/tested on day 50 (P388 leukemia; [2]): 3/4
COc1cc([C@@H]2c3cc4c(cc3[C@@H](O[C@@H]3O[C@@H]5CO[C@@H](C)O[C@H]5[C@H](OC(=O)c5ccccc5)[C@H]3OC(=O)c3ccccc3)[C@H]3COC(=O)[C@H]23)OCO4)cc(OC)c1O [Example 10, 2",3"-0-di-benzoyletoposide]	4.4 µg/mL (≈ 5.52 µM)	125%	–	–	–
COc1cc([C@@H]2c3cc4c(cc3[C@@H](O[C@@H]3O[C@@H]5CO[C@@H](C)O[C@H]5[C@H](OC(=O)c5ccccc5)[C@H]3O)[C@H]3COC(=O)[C@H]23)OCO4)cc(OC)c1O [Example 9, 3"-0-Benzoyletoposide]	0.17 µg/mL (≈ 0.245 µM)	–	0.83 µg/mL (≈ 1.2 µM)	–	Number of survivors/tested on day 50 (P388 leukemia; 60 mg/kg/day, i.p. single dose on day 1, CDF1 mice): 1/4; response vs control in vivo at 60 mg/kg (P388 leukemia; Mus musculus, P388, ip, 1200 h, 60 mg/kg/day, i.p. single dose on day 1, maximum % T/C at dose giving maximum effect, CDF1 mice, 50 days, read-out: % T/C MST): 420%
COc1cc([C@@H]2c3cc4c(cc3[C@@H](O[C@@H]3O[C@@H]5CO[C@@H](C)O[C@H]5[C@H](OC(C)=O)[C@H]3OC(C)=O)[C@H]3COC(=O)[C@H]23)OCO4)cc(OC)c1O [Example 1, 2",3"-di-0-acetyl etoposide]	1.3 µg/mL (≈ 1.93 µM)	–	< 0.8 µg/mL	165%	–
COc1cc([C@@H]2c3cc4c(cc3[C@@H](O[C@@H]3O[C@@H]5CO[C@@H](C)O[C@H]5[C@H](OC(C)=O)[C@H]3O)[C@H]3COC(=O)[C@H]23)OCO4)cc(OC)c1O [Example 4, 3"-0-acetyl-etoposide]	1.4 µg/mL (≈ 2.22 µM)	–	–	210%	–
COc1cc([C@@H]2c3cc4c(cc3[C@@H](O[C@@H]3O[C@@H]5CO[C@@H](C)O[C@H]5[C@H](O)[C@H]3OC(=O)c3ccccc3)[C@H]3COC(=O)[C@H]23)OCO4)cc(OC)c1O [Example 8, 2"-0-benzoyletoposide]	0.92 µg/mL (≈ 1.33 µM)	145%	–	–	–
COc1cc([C@@H]2c3cc4c(cc3[C@@H](O[C@@H]3O[C@@H]5CO[C@@H](C)O[C@H]5[C@H](O)[C@H]3O)[C@H]3COC(=O)[C@H]23)OCO4)cc(OC)c1O [Etoposide, etoposide]	0.45 µg/mL (≈ 0.765 µM)	–	–	–	Number of survivors/tested on day 50 (P388 leukemia; [2]): 6/12; response vs control in vivo at 30 mg/kg (P388 leukemia; [5]): 182%; response vs control in vivo at 120 mg/kg (P388 leukemia; [5]): > 390%
COc1cc([C@@H]2c3cc4c(cc3[C@@H](O[C@@H]3O[C@@H]5CO[C@@H](C)O[C@H]5[C@H](O)[C@H]3OC(C)=O)[C@H]3COC(=O)[C@H]23)OCO4)cc(OC)c1O [Example 3, 2"-0-acetyl etoposide]	1.6 µg/mL (≈ 2.54 µM)	–	1.1 µg/mL (≈ 1.74 µM)	240%	–
